Test results reported in patent US20240317744A1, “Bicyclic Ureas As Kinase Inhibitors” (Incyte Corporation, priority 2023, published 2024).

Columns and labels:
[1] = molecular target: catalytic domain (JH1, amino acids 808-1132) of human JAK2 (Homo sapiens, UniProt O60674); assay: JAK2 HTRF Enzyme Activity Assay; type: biochemical; details: ATP 30 µM, 60 minutes at 25° C.; read-out: V617F ENZ 30 UM
[2] = molecular target: T1, catalytic domain (JH1, amino acids 826-1132) of human JAK2 (Homo sapiens, UniProt O60674); assay: JAK2 LanthaScreen JH1 Binding Assay; details: JAK2 JH1 1.5 nM, 50 nM tracer, 2 hours at 25° C.; read-out: JH1 BIND
T1 construct: catalytic domain (JH1, amino acids 826-1132) of human JAK2; FLAG (N); biotin (biotinylated); purchased Carna Biosciences 08-445-20N; host or cells: baculovirus expression system
T1 sequence (O60674 826-1132): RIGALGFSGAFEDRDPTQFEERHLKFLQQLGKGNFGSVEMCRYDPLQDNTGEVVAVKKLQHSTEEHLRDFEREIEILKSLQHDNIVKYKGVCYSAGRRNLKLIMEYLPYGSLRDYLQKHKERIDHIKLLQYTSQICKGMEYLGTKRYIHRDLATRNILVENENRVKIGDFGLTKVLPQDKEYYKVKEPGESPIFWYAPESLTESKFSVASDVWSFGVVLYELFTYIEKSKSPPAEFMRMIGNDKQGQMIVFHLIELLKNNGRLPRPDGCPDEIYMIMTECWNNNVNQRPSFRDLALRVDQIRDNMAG
Outline: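 FLAG-tagged, biotinylated JAK2 JH1 (aa 826-1132, baculovirus-expressed; 1.5 nM) incubated 2 h at 25° C with compounds, 50 nM fluorescent tracer and 0.5 nM Streptavidin-Tb in Tris pH 7.5 buffer with MgCl2, Brij-35, BSA, EGTA, glycerol, DTT. Nonspecific binding defined with 2 mM ATP; TR-FRET IC50 from four-parameter fit.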

[3] = molecular target: T2, pseudo-kinase domain (JH2, amino-acids 536-812) of human Wild Type JAK2 (Homo sapiens, UniProt O60674, F794H/W659A/W777A); assay: JAK2 LanthaScreen JH2-WT Binding Assay; details: JAK2 JH2-WT 0.145 nM, 50 nM tracer, 1 hour at 25° C.; read-out: JH2 BIND WT
T2 construct: pseudo-kinase domain (JH2, amino-acids 536-812 with 3 surface mutations W659A, W777A, F794H); His (C); purchased BPS Bioscience 79463; host or cells: baculovirus expression system
T2 sequence (O60674 536-812 W659A/W777A/F794H): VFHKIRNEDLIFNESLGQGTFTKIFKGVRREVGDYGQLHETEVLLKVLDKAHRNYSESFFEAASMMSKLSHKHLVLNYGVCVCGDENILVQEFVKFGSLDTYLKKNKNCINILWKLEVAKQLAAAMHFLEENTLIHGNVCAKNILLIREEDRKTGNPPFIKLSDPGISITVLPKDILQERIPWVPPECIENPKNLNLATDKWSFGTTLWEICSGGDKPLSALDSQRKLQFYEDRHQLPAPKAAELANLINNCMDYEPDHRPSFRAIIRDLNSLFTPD
Outline: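 TR-FRET tracer displacement: IC50 from four-parameter dose-response fit. Reaction: compound, 0.145 nM biotinylated JH2 protein from baculovirus, 0.25 nM streptavidin-Tb and 50 nM tracer, 1 h at 25° C, 50 mM Tris pH 7.5 buffer. 2 mM ATP gave non-specific binding.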

[4] = molecular target: T3, pseudo-kinase domain (JH2, amino-acids 536-812) of human V617F mutant JAK2 (Homo sapiens, UniProt O60674, F794H/V617F/W659A/W777A); assay: JAK2 LanthaScreen JH2-V617F Binding Assay; details: JAK2 JH2-V617F 0.26 nM, 50 nM tracer, 1 hour at 25° C.; read-out: JH2 BIND V617F
T3 construct: pseudo-kinase domain (JH2, amino-acids 536-812 with 3 surface mutations W659A, W777A, F794H); His (C); purchased BPS Bioscience 79498; host or cells: baculovirus expression system
T3 sequence (O60674 536-812 V617F/W659A/W777A/F794H): as the sequence (O60674 536-812 W659A/W777A/F794H) above, with V82F counted along it
Outline: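 Competition of compounds with a fluorescent tracer (50 nM) for the biotinylated domain (0.26 nM), detected via streptavidin-Tb (0.25 nM) after 1 h at 25° C in pH 7.5 Tris buffer containing glycerol, BSA and Brij-35. ATP at 2 mM gave background. IC50 by four-parameter fit.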

Chain of catalytic domain (JH1, amino acids 808-1132) of human JAK2 (O60674 808-1132 limits assumed): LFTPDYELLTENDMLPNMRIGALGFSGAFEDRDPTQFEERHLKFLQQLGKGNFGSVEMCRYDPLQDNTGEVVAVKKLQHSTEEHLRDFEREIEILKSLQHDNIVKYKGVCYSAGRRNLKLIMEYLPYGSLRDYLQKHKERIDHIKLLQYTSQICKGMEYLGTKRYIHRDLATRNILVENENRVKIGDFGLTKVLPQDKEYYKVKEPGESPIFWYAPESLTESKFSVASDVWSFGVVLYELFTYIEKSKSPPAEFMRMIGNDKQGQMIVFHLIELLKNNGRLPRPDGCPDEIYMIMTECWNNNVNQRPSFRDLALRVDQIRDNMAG

SMILES | IC50 [1] [nM] | IC50 [2] [nM] | IC50 [3] [nM] | IC50 [4] [nM]
[2H]C([2H])([2H])n1c(=O)n([C@@H]2CC[C@@H](NC(=O)OC)C2)c2cc(Nc3cccc(C4CC4)n3)ncc21 [Example 50, Methyl ((1R,3R)-3-(6-((6-cyclopropylpyridin-2-yl)amino)-3-(methyl-d3)-2-oxo-2,3-dihydro-1H-imidazo[4,5-c]pyridin-1-yl)cyclopentyl)carbamate] | > 1000 | > 1000 | ≤ 10 | 10 to 100
COC(=O)N[C@@H]1CC[C@@H](n2c(=O)n(C)c3cnc(Nc4cc(-c5cnn(C)c5)cc(-c5cccc(C#N)c5)n4)cc32)C1 [Example 51, Methyl ((1R,3R)-3-(6-((6-(3-cyanophenyl)-4-(1-methyl-1H-pyrazol-4-yl)pyridin-2-yl)amino)-3-methyl-2-oxo-2,3-dihydro-1H-imidazo[4,5-c]pyridin-1-yl)cyclopentyl)carbamate] | > 1000 | > 1000 | ≤ 10 | 10 to 100
[2H]C([2H])([2H])n1c(=O)n([C@@H]2CC[C@@H](NC(=O)OC)C2)c2cc(Nc3cc(C(=O)N4CCOCC4)c4cccc(C(F)(F)F)c4n3)ncc21 [Example 52, Methyl ((1R,3R)-3-(3-(methyl-d3)-6-((4-(morpholine-4-carbonyl)-8-(trifluoromethyl)quinolin-2-yl)amino)-2-oxo-2,3-dihydro-1H-imidazo[4,5-c]pyridin-1-yl)cyclopentyl)carbamate] | 500 to 1000 | 500 to 1000 | ≤ 10 | ≤ 10
COC(=O)Nc1cc(Nc2cc3c(cn2)n(C)c(=O)n3[C@@H]2CC[C@@H](NC(=O)OC)C2)cc(-c2cnn(C)c2)c1 [Example 53, Methyl ((1R,3R)-3-(6-((3-((methoxycarbonyl)amino)-5-(1-methyl-1H-pyrazol-4-yl)phenyl)amino)-3-methyl-2-oxo-2,3-dihydro-1H-imidazo[4,5-c]pyridin-1-yl)cyclopentyl)carbamate] | > 1000 | > 1000 | ≤ 10 | 10 to 100
[2H]C([2H])([2H])n1c(=O)n([C@@H]2CC[C@@H](NC(=O)OC)C2)c2cc(Nc3ccc4ncc(C5CC5)n4n3)ncc21 [Example 54, Methyl ((1R,3R)-3-(6-((3-cyclopropylimidazo[1,2-b]pyridazin-6-yl)amino)-3-(methyl-d3)-2-oxo-2,3-dihydro-1H-imidazo[4,5-c]pyridin-1-yl)cyclopentyl)carbamate] | > 1000 | > 1000 | ≤ 10 | ≤ 10
COC(=O)N[C@@H]1CC[C@@H](n2c(=O)n(C)c3cnc(Nc4cc(NC(=O)OC5CC5)cc(OC)c4)cc32)C1 [Example 55, Methyl ((1R,3R)-3-(6-((3-((cyclopropoxycarbonyl)amino)-5-methoxyphenyl)amino)-3-methyl-2-oxo-2,3-dihydro-1H-imidazo[4,5-c]pyridin-1-yl)cyclopentyl)carbamate] | > 1000 | > 1000 | ≤ 10 | 10 to 100
COC(=O)N[C@@H]1CC[C@@H](n2c(=O)n(C)c3cnc(Nc4cc(NC(=O)OC5CCC5)cc(-c5cnn(C)c5)c4)cc32)C1 [Example 56, Methyl ((1R,3R)-3-(6-((3-((cyclobutoxycarbonyl)amino)-5-(1-methyl-1H-pyrazol-4-yl)phenyl)amino)-3-methyl-2-oxo-2,3-dihydro-1H-imidazo[4,5-c]pyridin-1-yl)cyclopentyl)carbamate] | > 1000 | > 1000 | ≤ 10 | ≤ 10
COC(=O)N[C@@H]1CC[C@@H](n2c(=O)n(C)c3cnc(Nc4cc(NC(=O)C5CC5)cc(-c5cnn(C)c5)c4)cc32)C1 [Example 57, Methyl ((1R,3R)-3-(6-((3-(cyclopropanecarboxamido)-5-(1-methyl-1H-pyrazol-4-yl)phenyl)amino)-3-methyl-2-oxo-2,3-dihydro-1H-imidazo[4,5-c]pyridin-1-yl)cyclopentyl)carbamate] | > 1000 | > 1000 | ≤ 10 | ≤ 10
